From ChEMBL document CHEMBL1201862, “PubChem BioAssay data set” (2004)
The source made the active and inactive calls.

Tests used:
[1] = target: T1, Aspartyl aminopeptidase (Plasmodium falciparum 3D7, UniProt Q8I2J3)
T1 sequence (Q8I2J3 whole entry): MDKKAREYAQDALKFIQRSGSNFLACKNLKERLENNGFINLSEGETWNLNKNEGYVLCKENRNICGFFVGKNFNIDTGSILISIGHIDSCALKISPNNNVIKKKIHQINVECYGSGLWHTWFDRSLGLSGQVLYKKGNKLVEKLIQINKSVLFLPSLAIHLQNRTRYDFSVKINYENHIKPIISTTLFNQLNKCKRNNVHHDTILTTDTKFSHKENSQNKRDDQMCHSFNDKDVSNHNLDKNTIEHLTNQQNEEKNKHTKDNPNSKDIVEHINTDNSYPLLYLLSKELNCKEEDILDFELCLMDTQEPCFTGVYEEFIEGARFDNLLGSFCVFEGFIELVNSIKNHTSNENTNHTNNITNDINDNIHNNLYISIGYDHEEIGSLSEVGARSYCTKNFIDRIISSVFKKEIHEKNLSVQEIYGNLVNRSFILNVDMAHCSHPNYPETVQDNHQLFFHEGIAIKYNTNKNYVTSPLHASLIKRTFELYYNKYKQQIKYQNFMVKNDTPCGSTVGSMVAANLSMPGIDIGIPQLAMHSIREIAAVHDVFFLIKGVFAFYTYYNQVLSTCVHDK

[2] = target: Procathepsin L (Homo sapiens, UniProt P07711)
Sequence of Procathepsin L (P07711 whole entry): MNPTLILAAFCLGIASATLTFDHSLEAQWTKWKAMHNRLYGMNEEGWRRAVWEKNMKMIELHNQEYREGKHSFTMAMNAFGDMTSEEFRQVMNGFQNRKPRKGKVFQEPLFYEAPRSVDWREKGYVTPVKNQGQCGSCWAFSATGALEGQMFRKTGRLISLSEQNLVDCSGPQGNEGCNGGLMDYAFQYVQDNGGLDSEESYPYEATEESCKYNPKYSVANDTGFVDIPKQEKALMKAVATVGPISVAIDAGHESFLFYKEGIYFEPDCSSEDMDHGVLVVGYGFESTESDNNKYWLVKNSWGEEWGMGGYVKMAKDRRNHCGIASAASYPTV

[3] = cytotoxicity in HEK-293T cells, dose response, cytotoxicity control for BCR NF-kB inhibitor project, luminescence, B-cell screen hits (AID 489021); format: functional, cell-based;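 further: HEK-293T cells carrying an NF-kB luciferase reporter; cells exposed to compound for about 14 hours before viability readout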
[4] = target: T2, Carboxy-terminal domain RNA polymerase II polypeptide A small phosphatase 1 (Homo sapiens, UniProt Q9GZU7); assay: inhibitors of CTDSP1, concentration-response testing, biochemical assay, absorbance-based, actives from ultra-high-throughput screening (AID 540297); format: functional
T2 sequence (Q9GZU7 whole entry): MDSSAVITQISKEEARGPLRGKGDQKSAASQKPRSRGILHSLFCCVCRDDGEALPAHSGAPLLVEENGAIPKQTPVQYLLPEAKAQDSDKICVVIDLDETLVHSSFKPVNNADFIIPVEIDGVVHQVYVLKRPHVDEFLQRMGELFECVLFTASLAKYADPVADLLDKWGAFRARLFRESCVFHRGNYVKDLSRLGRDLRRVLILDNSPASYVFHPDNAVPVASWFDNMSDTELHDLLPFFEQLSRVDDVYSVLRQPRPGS

[5] = Luminescence Cell-Based Dose Response HTS to Identify Inhibitors of 5'UTR Stem-Loop Driven Prion Protein mRNA Translation in H4 Neuroglioblastoma Cells. [Related pubchem assays: 1827 (Project Summary), 1813 (Primary HTS)]; format: functional
[6] = inhibitors of firefly luciferase expression or activity, dose response, H4 neuroglioma cells, luminescence (AID 1990); format: functional, cell-based
[7] = system: BJ; assay: cytotoxicity toward BJ-TERT fibroblasts, dose response, cell-based, RAS-independent, luminescence (AID 1933); format: functional; settings: Homo sapiens
[8] = system: BJ; assay: cytotoxicity toward Ras-transformed BJeLR fibroblasts, dose response, cell-based, alamar blue fluorescence, cherrypicked samples (AID 2631); format: functional; settings: Homo sapiens;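 further: confirmatory dose-response assay in RAS-dependent BJ fibroblasts engineered with TERT, LT and ST, with cytotoxicity read by fluorescence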
[9] = cytotoxicity toward DRD oncogenic fibroblasts, dose response, cell-based, non-viral oncogenic, luminescence (AID 1934); format: functional; settings: Homo sapiens
[10] = target: T3, Zinc finger protein mex-5 (Caenorhabditis elegans, UniProt Q9XUB2); assay: MEX-5/TCR-2 RNA interaction inhibitors, dose response, biochemical, C. elegans, fluorescence polarization (AID 1960)
T3 sequence (Q9XUB2 whole entry): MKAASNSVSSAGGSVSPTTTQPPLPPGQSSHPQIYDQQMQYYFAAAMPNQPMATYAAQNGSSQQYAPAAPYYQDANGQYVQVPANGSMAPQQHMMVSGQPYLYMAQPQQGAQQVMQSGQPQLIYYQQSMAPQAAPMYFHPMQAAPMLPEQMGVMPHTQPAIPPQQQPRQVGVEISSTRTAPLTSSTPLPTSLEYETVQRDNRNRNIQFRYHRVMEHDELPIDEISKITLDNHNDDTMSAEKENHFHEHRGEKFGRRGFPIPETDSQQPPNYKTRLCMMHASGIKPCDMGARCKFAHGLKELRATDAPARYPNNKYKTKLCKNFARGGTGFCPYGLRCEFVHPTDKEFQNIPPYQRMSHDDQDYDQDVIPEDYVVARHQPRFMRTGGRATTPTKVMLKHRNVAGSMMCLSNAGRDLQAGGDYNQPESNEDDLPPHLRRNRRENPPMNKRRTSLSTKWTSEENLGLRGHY

[11] = system: BJ; assay: cells; format: functional, cell-based; settings: Homo sapiens
[12] = target: T4, RNA-binding protein pos-1 (Caenorhabditis elegans, UniProt G5EF15); assay: inhibitors of POS-1/mex-3 RNA binding, dose response, biochemical, fluorescence polarization (AID 1964);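 further: purified POS-1 fused to maltose binding protein made in E. coli; potency of compounds blocking POS-1 binding to fluorescent RNA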
T4 sequence (G5EF15 whole entry): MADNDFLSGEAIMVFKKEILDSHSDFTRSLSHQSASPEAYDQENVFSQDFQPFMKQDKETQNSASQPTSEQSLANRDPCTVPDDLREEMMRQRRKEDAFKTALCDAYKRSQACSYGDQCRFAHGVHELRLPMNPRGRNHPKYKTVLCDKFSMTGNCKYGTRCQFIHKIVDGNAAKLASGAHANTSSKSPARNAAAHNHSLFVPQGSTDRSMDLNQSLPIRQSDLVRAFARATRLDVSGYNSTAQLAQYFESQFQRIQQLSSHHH

[13] = system: BJ; assay: cytotoxicity toward BJ-TERT-LT-ST fibroblasts, dose response, cell-based, RAS-independent, luminescence (AID 1935); format: functional; settings: Homo sapiens;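 further: BJ fibroblasts immortalized with TERT plus LT and ST oncogenes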
[14] = target: Cytochrome P450 3A4 (Homo sapiens, UniProt P08684);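 further: CYP3A4 tested as one member of a cytochrome P450 panel screen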
Sequence of Cytochrome P450 3A4 (P08684 whole entry): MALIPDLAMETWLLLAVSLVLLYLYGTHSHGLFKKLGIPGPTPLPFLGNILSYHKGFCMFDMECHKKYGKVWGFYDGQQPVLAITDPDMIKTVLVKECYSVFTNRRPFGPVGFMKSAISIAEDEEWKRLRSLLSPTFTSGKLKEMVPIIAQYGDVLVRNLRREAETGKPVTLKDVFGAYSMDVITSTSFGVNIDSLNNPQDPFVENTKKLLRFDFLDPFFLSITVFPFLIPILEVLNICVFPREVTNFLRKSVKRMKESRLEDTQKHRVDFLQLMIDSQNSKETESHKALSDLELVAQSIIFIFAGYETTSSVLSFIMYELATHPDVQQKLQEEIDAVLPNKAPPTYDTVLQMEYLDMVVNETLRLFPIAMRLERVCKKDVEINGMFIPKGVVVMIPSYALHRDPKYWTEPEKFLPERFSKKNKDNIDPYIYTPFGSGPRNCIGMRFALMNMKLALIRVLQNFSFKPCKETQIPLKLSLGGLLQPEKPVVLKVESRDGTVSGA

[15] = target: Cytochrome P450 2C19 (Homo sapiens, UniProt P33261); assay: Cytochrome panel assay with activity outcomes. Panel member name: p450-cyp2c19 Compounds with AC50 equal or less than 10 uM are considered active; format: functional; settings: read-out: AC50
Sequence of Cytochrome P450 2C19 (P33261 whole entry): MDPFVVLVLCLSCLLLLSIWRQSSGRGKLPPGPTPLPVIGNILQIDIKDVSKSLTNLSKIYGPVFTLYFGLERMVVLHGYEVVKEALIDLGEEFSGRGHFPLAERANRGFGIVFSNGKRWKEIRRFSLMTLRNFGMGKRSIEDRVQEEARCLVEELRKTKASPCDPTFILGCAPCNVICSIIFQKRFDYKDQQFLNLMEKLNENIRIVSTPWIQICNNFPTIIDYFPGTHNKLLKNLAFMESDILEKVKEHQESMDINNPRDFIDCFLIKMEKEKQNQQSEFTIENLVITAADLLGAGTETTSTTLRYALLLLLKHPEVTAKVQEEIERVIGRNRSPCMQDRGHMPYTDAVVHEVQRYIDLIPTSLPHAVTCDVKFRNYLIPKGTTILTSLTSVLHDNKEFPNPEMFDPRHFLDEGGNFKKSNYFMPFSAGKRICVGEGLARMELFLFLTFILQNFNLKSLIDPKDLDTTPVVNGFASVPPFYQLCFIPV

[16] = growth suppression of beta-catenin-knockout colon cells, dose response, cell-based, HCT116, human colon tumor (AID 1045); format: functional;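 further: HCT116 colon tumor cells with beta catenin knocked out; cells exposed to compound for 60 hours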
[17] = Luminescence Cell-Based Dose Confirmation HTS to Identify Inhibitors of Platelet Dense Granule Release. [Related pubchem assays: 1663 (Primary HTS), 1678 (Summary of Project)]; format: functional
[18] = cytotoxicity in HPDE-C7 cells, cell-based, fluorescence, HTS (AID 430); format: functional; settings: Homo sapiens
[19] = system: Vero; assay: cells; format: functional; settings: Chlorocebus sabaeus
[20] = THP-1 cell cytotoxicity, dose response, cytotoxicity control for non-replicating M. tuberculosis project (AID 489025); format: functional
[21] = cells; format: functional
[22] = growth suppression of PTEN-null colon cells, dose response, cell-based, HCT116 PTEN knockout (AID 1047); format: functional;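 further: HCT116 colon tumor cells with PTEN knocked out; cells exposed to compound for 60 hours before readout; potency for loss of cell viability measured by luminescence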
[23] = cytotoxicity in KRAS-transformed pancreatic duct cells, primary screen, cell-based, fluorescence, HTS (AID 431); format: functional; settings: Homo sapiens;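 further: cell line used: HPDE-C7K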
[24] = Vero E6 cell cytotoxicity, dose response, cytotoxicity control for non-replicating M. tuberculosis project, secondary assay (AID 492998); format: functional, VeroE6; settings: Vero C1008
[25] = target: T5, Replicative DNA helicase DnaB (Mycobacterium tuberculosis, UniProt P9WMR3); assay: DnaB intein splicing inhibitors, dose response, biochemical, cell-free fluorescence (AID 449749); format: functional
T5 sequence (P9WMR3 whole entry): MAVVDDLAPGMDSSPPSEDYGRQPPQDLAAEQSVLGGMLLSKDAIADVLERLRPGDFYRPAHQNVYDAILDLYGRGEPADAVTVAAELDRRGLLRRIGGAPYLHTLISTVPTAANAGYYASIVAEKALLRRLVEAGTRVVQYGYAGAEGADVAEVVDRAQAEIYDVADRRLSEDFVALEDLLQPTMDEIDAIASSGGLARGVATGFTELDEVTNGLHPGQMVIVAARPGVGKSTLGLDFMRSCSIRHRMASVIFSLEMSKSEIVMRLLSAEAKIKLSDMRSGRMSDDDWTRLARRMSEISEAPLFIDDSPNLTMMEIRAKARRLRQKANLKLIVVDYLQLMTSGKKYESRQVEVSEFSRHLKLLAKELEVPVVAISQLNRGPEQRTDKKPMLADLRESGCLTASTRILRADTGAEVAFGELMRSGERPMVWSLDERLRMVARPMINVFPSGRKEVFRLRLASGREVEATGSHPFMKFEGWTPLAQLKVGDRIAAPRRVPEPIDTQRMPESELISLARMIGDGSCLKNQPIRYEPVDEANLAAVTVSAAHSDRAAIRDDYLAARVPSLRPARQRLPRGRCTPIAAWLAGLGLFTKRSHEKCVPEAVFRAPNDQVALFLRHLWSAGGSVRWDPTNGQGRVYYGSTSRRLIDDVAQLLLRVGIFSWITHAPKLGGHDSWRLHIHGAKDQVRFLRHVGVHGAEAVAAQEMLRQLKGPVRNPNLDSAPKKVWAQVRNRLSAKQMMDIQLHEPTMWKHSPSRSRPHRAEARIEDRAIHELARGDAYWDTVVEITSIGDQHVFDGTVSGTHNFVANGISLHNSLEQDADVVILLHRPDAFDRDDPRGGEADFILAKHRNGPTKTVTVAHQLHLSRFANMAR

[26] = target: Luciferin 4-monooxygenase (Photinus pyralis, UniProt P08659); assay: firefly luciferase enzyme inhibitors, dose response, biochemical, luminescence (AID 1891)
Sequence of Luciferin 4-monooxygenase (P08659 whole entry): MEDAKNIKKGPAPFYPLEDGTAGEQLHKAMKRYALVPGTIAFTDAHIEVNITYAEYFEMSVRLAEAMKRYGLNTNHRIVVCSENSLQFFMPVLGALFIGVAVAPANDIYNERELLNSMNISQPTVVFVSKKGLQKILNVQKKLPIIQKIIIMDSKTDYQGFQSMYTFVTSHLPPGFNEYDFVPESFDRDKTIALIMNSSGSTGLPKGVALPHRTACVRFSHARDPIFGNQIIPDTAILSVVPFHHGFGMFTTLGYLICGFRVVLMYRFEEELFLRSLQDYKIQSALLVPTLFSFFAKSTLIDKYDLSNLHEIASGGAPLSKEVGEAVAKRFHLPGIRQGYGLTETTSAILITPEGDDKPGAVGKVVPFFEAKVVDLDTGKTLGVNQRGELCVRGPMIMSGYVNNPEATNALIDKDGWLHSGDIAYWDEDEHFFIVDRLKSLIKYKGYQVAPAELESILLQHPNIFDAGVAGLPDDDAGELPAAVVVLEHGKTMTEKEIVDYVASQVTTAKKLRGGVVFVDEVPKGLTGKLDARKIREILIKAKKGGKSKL

[27] = target: T6, Protein RecA (Mycobacterium tuberculosis, UniProt P9WHJ3); assay: Fluorescence Cell-Free Homogeneous Dose Retest to Identify Inhibitors of RecA-Intein Splicing Activity. [Related pubchem assays (depositor defined):AID2097, AID2223, AID489010, AID492950]; format: functional
T6 sequence (P9WHJ3 whole entry): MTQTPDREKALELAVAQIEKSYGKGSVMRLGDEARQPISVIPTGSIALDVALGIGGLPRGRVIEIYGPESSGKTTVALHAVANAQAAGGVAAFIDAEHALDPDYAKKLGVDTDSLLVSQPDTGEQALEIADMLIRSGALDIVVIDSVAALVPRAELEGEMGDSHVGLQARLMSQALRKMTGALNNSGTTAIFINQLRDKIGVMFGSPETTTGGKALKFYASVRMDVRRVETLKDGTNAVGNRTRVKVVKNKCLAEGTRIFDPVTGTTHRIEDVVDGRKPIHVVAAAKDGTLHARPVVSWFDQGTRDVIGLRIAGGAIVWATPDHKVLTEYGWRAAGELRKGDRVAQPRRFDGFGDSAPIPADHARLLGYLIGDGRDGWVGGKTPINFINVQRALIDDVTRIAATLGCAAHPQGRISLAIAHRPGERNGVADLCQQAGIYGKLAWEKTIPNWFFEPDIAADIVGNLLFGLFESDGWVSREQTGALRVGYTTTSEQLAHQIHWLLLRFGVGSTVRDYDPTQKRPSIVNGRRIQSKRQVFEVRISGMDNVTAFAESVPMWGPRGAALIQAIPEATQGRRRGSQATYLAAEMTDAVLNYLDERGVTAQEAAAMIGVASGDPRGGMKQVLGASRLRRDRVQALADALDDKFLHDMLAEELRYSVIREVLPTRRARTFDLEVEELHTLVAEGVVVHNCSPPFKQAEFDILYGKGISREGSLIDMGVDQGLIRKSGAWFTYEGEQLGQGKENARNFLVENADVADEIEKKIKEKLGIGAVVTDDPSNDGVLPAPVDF

[28] = inhibitors of SNCA 5'UTR-driven reporter translation, confirmation, H4 neuroglioma cells, luminescence (AID 1988); format: functional, cell-based

CC1(C)C2([N+](=O)[O-])CN3CC1([N+](=O)[O-])CN(C2)C3c1ccc(O)c(O)c1 (configuration not stated)
IC50 [1]: 1.19 µM (active)
IC50 [2]: > 59.6 µM (not active)

COc1ccc(/C=C2\SC(=S)N(CCC(=O)Nc3ccc(C(=O)O)cc3)C2=O)cc1
IC50 [3]: > 80 µM (inactive)
IC50 [4]: 2.63 µM (active)

Cc1nc2cc(-c3ccc(Cl)cc3)nn2c(C)c1CCC(=O)NC(C)c1ccc2c(c1)OCCO2 (configuration not stated)
EC50 [5]: 11.6 µM (active)
IC50 [3]: > 80 µM (inactive)
EC50 [6]: < 0.1 µM (active)

Cc1ccc(-c2nn3c(C)nnc3c3ccccc23)cc1S(=O)(=O)N1CCN(CCO)CC1
IC50 [3]: > 80 µM (inactive)

O=C(Nc1cccc(Cl)c1Cl)Nn1cnnc1
IC50 [1]: 0.631 µM (active)
IC50 [2]: > 59.6 µM (not active)

CCc1ccc(/C=C2/SC(=S)N(CCC(=O)Nc3cccnc3)C2=O)cc1
EC50 [7]: 2.88 µM (inconclusive)
EC50 [8]: > 66.7 µM (inactive)
EC50 [9]: 12.8 µM (active)
IC50 [3]: > 80 µM (inactive)
EC50 [10]: > 300 µM (inconclusive)
EC50 [11]: > 150 µM (inconclusive)
EC50 [12]: 141 µM (active)
EC50 [13]: > 75 µM (inconclusive)

Cc1ccc(N2C(=O)/C(=C/Nn3cnnc3)c3ccccc3C2=O)cc1
AC50 [14]: 15.8 µM (inconclusive)
IC50 [1]: 1.67 µM (active)
AC50 [15]: 10 µM (inconclusive)
IC50 [2]: > 59.6 µM (not active)

Cc1cccc(OCCN2CSC(=S)N(C)C2)c1
EC50 [16]: 4.21 µM (active)
EC50 [17]: > 112 µM (not active)
EC50 [18]: 6.23 µM (active)
CC50 [19]: 7.62 µM (active)
CC50 [20]: 11.8 µM (active)
IC50 [21]: 10.4 µM (active)
EC50 [22]: 7.66 µM (active)
EC50 [23]: 6.24 µM (active)
CC50 [24]: 6.85 µM (active)
AC50 [25]: 14.7 µM (active)
EC50 [26]: > 112 µM (not active)
EC50 [27]: 12.5 µM (active)

Cc1ccc(N=C(S)Nn2cnnc2)c(C)c1
IC50 [1]: 2.11 µM (active)
IC50 [2]: > 59.6 µM (not active)

Cc1cc(C)cc(C(=O)n2cnnc2N)c1
IC50 [1]: 2.89 µM (active)
IC50 [2]: > 59.6 µM (not active)

Cc1ccc(CSc2nnc(SCC(=O)N/N=C/C=C/c3ccccc3[N+](=O)[O-])s2)cc1
EC50 [5]: 12.9 µM (active)
IC50 [3]: > 80 µM (inactive)
EC50 [28]: 12.1 µM (active)
EC50 [6]: 9.7 µM (active)
